These results are taken from patent publication US11021721B2, “Genetically engineered Pseudomonas strains capable of metabolizing ethylene glycol and its metabolic intermediates” (Alliance for Sustainable Energy, LLC, priority 2017, dated 2021).

The test system of data set [1] is tartronate semialdehyde reductase (GlxR). The note with it: cited from earlier work.
Data set [2] concerns P. putida KT2440. Put plainly: Toxicity tests in Bioscreen C: growth in M9 minimal medium with 20 mM glucose and inhibitor. It is filed as cell-based, Pseudomonas putida KT2440. The note with it: 20 mM glucose.
Method: Toxicity tests and competitive inhibition assays were performed using Bioscreen C MBR analyzers (Growth Curves US, Piscataway, N.J.). For toxicity tests, overnight cultures of P. putida KT2440 were grown in M9 medium containing 20 mM glucose starting at an OD600 of 0.05-0.1 at 30° C. with shaking at 225 rpm in baffled shake flasks until the OD600 reached about 1.0-1.5. Cells were subsequently concentrated by centrifugation and inoculated into wells of Bioscreen C microplates at an initial OD600=0.05. Each well contained a total volume of 300 M9 medium, 20 mM glucose, and inhibitors at various concentrations. Incubations were performed at 30° C. with maximum shaking. Absorbance readings were taken every 15 min. […] Initial OD600 was set at 0.1 by using an overnight culture of wild type P. putida KT2440. Samples were incubated as described above. Operation of the Bioscreen C MBR and collection of turbidity measurements (OD420-580) were computer automated with EZ Experiment.
Growth curves were obtained from Bioscreen C analyzers (Growth Curves US, Piscataway, N.J.). Overnight cultures of P. putida KT2440 were grown in M9 medium containing 20 mM glucose starting at an OD600 of 0.05-0.1, 30° C., 225 rpm (baffled shake flask) until the OD600 reached ˜1.0-1.5. Cells were concentrated by centrifugation and inoculated into wells of Bioscreen C microplates containing various inhibitors and concentrations in the presence of 20 mM glucose at and additional OD600=0.05 in a total volume of 300 μL. Incubations were performed at 30° C. and absorbance readings were taken every 15 min. Operation of the Bioscreen C and collection of turbidity measurements (OD420-580) were computer automated with EZ Experiment. Data was collected and exported to Microsoft Excel spreadsheets for analysis.
Data set [3] concerns P. putida KT2440. As to the kind of experiment: Competitive inhibition assay, glycolaldehyde and glyoxal full-factorial growth test (Bioscreen C). It is filed as cell-based, Pseudomonas putida KT2440. As to the method: FIG. 13 depicts synergistic inhibitory effect of glycolaldehyde and glyoxal. Growth assays were conducted in 100 well plates in the Bioscreen C MBR analyzer. Individual wells of the plate were filled with 200 μL of M9 medium-containing 20 mM glucose and the respective concentration of glycolaldehyde and glyoxal according to a 3-level full-factorial design (Table 3), growth rates expressed as means±SEM (n=3). Bars labeled with different letters indicate statistical significance of different runs (p<0.05; one-way ANOVA followed by Tukey's post hoc honest significance difference test).
Toxicity tests and competitive inhibition assays were performed using Bioscreen C MBR analyzers (Growth Curves US, Piscataway, N.J.). For toxicity tests, overnight cultures of P. putida KT2440 were grown in M9 medium containing 20 mM glucose starting at an OD600 of 0.05-0.1 at 30° C. with shaking at 225 rpm in baffled shake flasks until the OD600 reached about 1.0-1.5. Cells were subsequently concentrated by centrifugation and inoculated into wells of Bioscreen C microplates at an initial OD600=0.05. Each well contained a total volume of […] M9 medium, 20 mM glucose, and inhibitors at various concentrations. Incubations were performed at 30° C. with maximum shaking. Absorbance readings were taken every 15 min. For competitive inhibition assays, individual wells of the plate were filled with 200 μL of M9 medium containing 20 mM glucose and a respective concentration of glycolaldehyde and glyoxal according to full-factorial test run results of which are presented in Table 3 and depicted in graphical form in FIG. 13. Initial OD600 was set at 0.1 by using an overnight culture of wild type P. putida KT2440. Samples were incubated as described above. Operation of the Bioscreen C MBR and collection of turbidity measurements (OD420-580) were computer automated with EZ Experiment.
The toxicity effects of ethylene glycol, glyoxylate, glycolaldehyde, glyoxal and oxalate on P. putida KT2440 were examined by monitoring growth in the Bioscreen C instrument (a microplate reader which monitors turbidity over time) in the presence of M9 minimal medium containing 20 mM glucose and the inhibitor, see FIG. 20. The average OD of at least 5 wells was plotted in FIG. 9. […] Glyoxal, an oxidation product of glycolaldehyde, is also very inhibitory to P. putida KT2440 growth at a 5 mM concentration where a long lag phase is observed. At 7.5 mM, glyoxal is lethal to the cells. Therefore, glycolaldehyde and glyoxal are intermediate metabolites which result in ethylene glycol toxicity on P. putida KT2440. Glycolaldehyde exerts combinational inhibitory effect with other compounds, such as 5-HMF, furfural, and methylglyoxal. The combinational inhibitory effect of glycolaldehyde and glyoxal was determined by running three level full-factorial growth experiments, see FIG. 13 and Table 3.

Data set [4] has as its system P. putida KT2440. The note with it: on glucose, co-feed of formate, similar conditions; cited from earlier work.
The test system of data set [5] is P. putida KT2440. As to the kind of experiment: C-limited chemostat cultivation on acetate with co-feed of ethylene glycol or glyoxylate. It is filed as cell-based, Pseudomonas putida KT2440. To be noted: for increase of biomass yield on acetate: 30 mM co-feed with 30 mM acetate, compared to control with only acetate; for reducing equivalents generated through co-metabolism: co-feed with acetate, assuming all glyoxylate is metabolized through the glyoxylate shunt. As to the method:
FIG. 14 depicts co-feeding of P. putida KT2440 in C-limited chemostat cultivations on mineral medium with 30 mM acetate supplemented with 30 mM ethylene glycol (black), 30 mM glyoxylate (green), or no co-feed (grey). FIG. 14A depicts a comparison of biomass (OD600) at steady state. FIG. 14B depicts extracellular metabolites at steady state. […] FIG. 14C depicts flux analysis of redox equivalent-yielding metabolism of ethylene glycol (upper value) or glyoxylate (lower value) in mM gCDW^−1 h^−1. Cells were grown at a dilution rate of 0.2. Error bars indicate the deviation from the mean (n=2).
To investigate the applicability of ethylene glycol as a co-substrate, P. putida KT2440 was cultured in carbon-limited chemostat cultivations with acetate as carbon source, and either ethylene glycol or glyoxylate as an energy source. Acetate was chosen because it induces the glyoxylate shunt enzymes.
Energy and redox equivalent homeostasis is essential for efficient growth of a bacterial cell.

Several values for one entry are separate records, joined by “and”; a condition that tells them apart may be missing. Identical values can stand only once.

With `O=C(O)C(=O)CO` [hydroxypyruvate], the “maximal velocity as GlxR substrate, fold lower than tartronate semialdehyde” value in data set [1] is 10 fold.

For `O=C(O)CO` [glycolate], in data set [1] (inhibition of GlxR), the inhibitory constant (Ki) – broadly, a measure of affinity in units of concentration, obtained from inhibition or displacement – is 3000 µM.

For the compound `O=CC=O` [Glyoxal, glyoxal], in data set [2], the “concentration inhibitory to growth with long lag phase” value is 5000 µM. For the same compound, in data set [2], the lethal concentration stood at 7.5 mM. Further, the Growth Rate in data set [3] (in the presence of 2 mM glyoxal) was 0.25 h⁻¹ and 0.297 ± 0.001 h⁻¹; in data set [3] (run 1: glycolaldehyde 0 mM, glyoxal 1.0 mM), 0.297 h⁻¹; in data set [3] (run 2: glycolaldehyde 0 mM, glyoxal 1.5 mM), 0.280 h⁻¹; in data set [3] (run 3: glycolaldehyde 0 mM, glyoxal 2.0 mM), 0.246 h⁻¹.

With `O=CCO` [Glycolaldehyde, glycolaldehyde], the “concentration that completely inhibited growth” value in data set [2] was determined as 4000 µM. Also, the “concentration that inhibits growth” value in data set [2] is 3000 µM. For the same compound, the Growth Rate in data set [3] (in the presence of 2 mM glycolaldehyde) is 0.22 h⁻¹ and 0.291 ± 0.001 h⁻¹; in data set [3] (run 13: glycolaldehyde 1.0 mM, glyoxal 0 mM), 0.281 h⁻¹; in data set [3] (run 14: glycolaldehyde 1.5 mM, glyoxal 0 mM), 0.221 h⁻¹; in data set [3] (run 15: glycolaldehyde 2 mM, glyoxal 0 mM), 0.218 h⁻¹.

On to `O=CO` [formate], for which, in data set [4], the “reducing equivalents at maximal achievable biomass yield” value is recorded as 7.6±0.9 mmol (g CDW)^−1 h^−1.

For the compound `O=C([O-])C(=O)[O-].[Na+].[Na+]` [sodium oxalate], the “concentration not significantly inhibitory to growth” value in data set [2] is “up to 50 mM”.

Take `O=CC(=O)O` [glyoxylate]: in data set [5], the “increase of biomass yield on acetate” value is given as 22.2±8.2% and the “reducing equivalents generated through co-metabolism” value was 14.4±0.5 mmol (g CDW)^−1 h^−1.

Take `OCCO` [Ethylene glycol, ethylene glycol]: in data set [5], the “increase of biomass yield on acetate” value is listed as 29.6±1.1% and the “reducing equivalents generated through co-metabolism” value is reported as 27.3±2.6 mmol (g CDW)^−1 h^−1.
